These results are taken from patent publication US5965539A, “Inhibitors of prenyl transferases” (Univeristy of Pittsburgh, priority 1996, dated 1999).

“Also recorded” adds a separate entry of the source. Where two headings read alike, the source gives them in different places.

One experiment addresses T1, rat brain FTase (Rattus norvegicus, UniProt Q02293).
T1 construct: 50 nM towards rat brain FTase purified to homogeneity; from tissue; host or cells: rat brain
The experiment is described as follows: Inhibition of rat brain FTase purified to homogeneity. Type of experiment: biochemical.

A further experiment addresses T2, GGTase I (Homo sapiens, UniProt P53609).
T2 construct: FTase and GGTase I activities from 60,000×g supernatants of human Burkitt lymphoma (Daudi) cells; endogenous in cells; host or cells: human Burkitt lymphoma (Daudi) cells, 60,000xg supernatant (partially purified)
Briefly: GGTase I activity assay: transfer of [3H]geranylgeranyl to recombinant H-Ras-CVLL, Daudi 60,000xg supernatant. Type of experiment: biochemical.

Another experiment relates to Ras processing. Briefly: Ras processing assay in EJ3 / Ras transformed 3T3 cells (FIG. 16A). Type of experiment: cell-based. As to the method: EJ3 cells were treated with peptidomimetics or vehicle for 20-24 h. Cells were lysed in lysis buffer (10 mM Na2 HPO4, pH 7.25, 150 mM NaCl, 0.1% sodium dodecyl sulfate, 1% Triton X-100, 12 mM sodium deoxycholate, 1 mM NaF, 0.2% NaN3, 2 mM PMSF, 25 μg/ml leupeptin) and the lysates were cleared by spinning at 13,000 rpm for 15 minutes. Ras protein was immunoprecipitated overnight at 4° C. with 50 μg of anti-Ras antibody (Y13-259; hybridoma from ATCC, Rockville, Md.) along with 30 μl Protein A-agarose goat anti-rat IgG complex (oncogene Science, Uniondale, N.Y.). Immunoprecipitates were washed 4 times with lysis buffer and the bound proteins were released by heating for 5 minutes in 40 μl SDS-PAGE sample buffer and subsequently electrophoresed on a 12.5% SDS-PAGE.

For the next experiment, the system named is Rap1A processing. The experiment is described as follows: Rap1A processing assay in EJ3 / Ras transformed 3T3 cells (FIG. 16B). The format is cell-based. As to the method: For Rap1A processing assays, 50 μg of cell lysates were electrophoresed as described above for Ras processing and transferred to nitrocellulose. These membranes were then blocked with 5% milk in Tris-buffered saline, pH 8.0, containing 0.5% Tween-20 and probed with anti-Rap1A (1 μg/ml in 5% milk/TBS-T; Santa Cruz Biotechnology, Santa Cruz, Calif.). Antibody reactions were visualized using peroxidase-conjugated goat anti-rabbit IgG (Oncogene) and ECL chemiluminescence as described above.

Experiment [1] concerns the target T3, FTase (Homo sapiens, UniProt P49356).
T3 construct: FTase and GGTase I activities from 60,000×g supernatants of human Burkitt lymphoma (Daudi) cells; endogenous in cells; host or cells: human Burkitt lymphoma (Daudi) cells, 60,000xg supernatant (partially purified)
Briefly: FTase activity assay: transfer of [3H]farnesyl from FPP to recombinant H-Ras-CVLS, Daudi 60,000xg supernatant. The format is biochemical. The method, then: FTase and GGTase I activities from 60,000×g supernatants of human Burkitt lymphoma (Daudi) cells (ATCC, Rockville, Md., USA) were assayed as described previously for FTase (41). Briefly, 100 μg of the supernatant was incubated in 50 mM Tris, pH 7.5, 50 μM ZnCl2, 20 mM KCl and 1 mM dithiothreitol (DTT).
Human Burkitt lymphoma (Daudi) cells (ATCC, Rockville, Md.) were grown in suspension in RPMI 1640 medium containing 10% fetal bovine serum (FBS) and 1% Pen-Strep in a humidified 10% CO2 incubator at 37° C. The cells were harvested and sonicated in 50 mM Tris, pH 7.5, 1 mM EDTA, 1 mM EGTA, 25 μg/ml leupeptin, 1 mM phenylmethylsulfonyl fluoride. Homogenates were then spun at 12,000×g and the resulting supernatant further spun at 60,000×g. The supernatant was assayed for both FTase and GGTase I. Briefly, 100 μg of the supernatants was incubated in 50 mM Tris, pH 7.5, 50 μM ZnCl2, 20 mM KCl, 3 mM MgCl2 and 1 mM DTT. […] FPP (625 nM; 16.3 Ci/mmol). For GGTase assays, the reaction was also incubated for 30 minutes at 37° C. but with recombinant H-Ras-CVLL (5 μM) and [^3 H] GGPP (525 nM; 19.0 Ci/mmol). The reaction was stopped and passed through glass fiber filters to separate free and incorporated label. For inhibition studies, the peptidomimetics were premixed with FTase or GGTase I prior to adding the remainder of the reaction mixture. […] Recombinant H-Ras-CVLL was prepared from bacteria (32).
FTase and GGTase I activities from 60,000×g supernatants of human Burkitt lymphoma (Daudi) cells (ATCC, Rockville, Md.) were assayed exactly as described previously for FTase (41).

Experiment [2] has as its target T3, FTase. The experiment is described as follows: Peptidomimetics farnesylation assay (silica gel TLC). Type of experiment: biochemical. The method, then: The ability of human Burkitt lymphoma (Daudi) FTase to farnesylate peptides and peptidomimetics was determined as described previously (34, 35). Briefly, 25 μl of reaction mixture containing 50 μg of 60,000×g supernatants and 20 μM peptidomimetic in 50 mM Tris, pH 7.5, 50 μM ZnCl2, 20 mM KCl, 3 mM MgCl2, 1 mM DTT and 0.2% octylβ-D-glucoside was incubated for 30 minutes at 37° C., then spotted onto silica gel G TLC sheets (20×20 cm, Brinkmann Instruments), and developed with n-propanol/5 N ammonium hydroxide/water (6:1:1). The dried sheets were sprayed with En^3 Hance (DuPont NEN) and exposed to x-ray film for detection of [^3 H] farnesylated products.

In experiment [3] the target is FTase. Conditions: published; cited from earlier work.

T3 sequence (P49356 whole entry): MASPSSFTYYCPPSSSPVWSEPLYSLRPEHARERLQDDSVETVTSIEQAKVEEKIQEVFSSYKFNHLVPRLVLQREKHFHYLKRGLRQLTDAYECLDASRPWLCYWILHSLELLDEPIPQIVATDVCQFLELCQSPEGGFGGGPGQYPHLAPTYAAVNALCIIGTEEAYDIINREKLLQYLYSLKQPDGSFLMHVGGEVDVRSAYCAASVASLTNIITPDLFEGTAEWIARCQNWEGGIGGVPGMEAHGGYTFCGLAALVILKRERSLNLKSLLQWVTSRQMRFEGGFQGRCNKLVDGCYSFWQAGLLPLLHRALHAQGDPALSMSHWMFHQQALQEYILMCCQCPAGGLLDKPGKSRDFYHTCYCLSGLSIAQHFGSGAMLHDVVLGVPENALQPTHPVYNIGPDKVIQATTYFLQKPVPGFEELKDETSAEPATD
T2 sequence (P53609 whole entry): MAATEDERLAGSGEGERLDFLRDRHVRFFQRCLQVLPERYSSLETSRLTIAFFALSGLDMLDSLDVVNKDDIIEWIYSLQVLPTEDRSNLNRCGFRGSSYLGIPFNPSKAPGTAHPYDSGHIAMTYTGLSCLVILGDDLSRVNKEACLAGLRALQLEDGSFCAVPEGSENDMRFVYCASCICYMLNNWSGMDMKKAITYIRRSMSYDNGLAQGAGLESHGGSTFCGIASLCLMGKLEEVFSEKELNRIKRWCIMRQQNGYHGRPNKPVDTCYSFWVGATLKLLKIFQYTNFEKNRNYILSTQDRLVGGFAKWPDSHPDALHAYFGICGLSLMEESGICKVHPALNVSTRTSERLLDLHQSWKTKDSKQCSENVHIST

The term IC50 denotes the concentration that gives 50% inhibition. For the compound `N[C@@H](CS)CNc1ccc(-c2cccc(C(=O)O)c2)cc1` [FTI-265, 4-N-[2(R)-amino-3-mercaptopropyl]amino-3'-carboxybiphenyl], the IC50 against rat brain FTase was 50 nM; at GGTase I (Table 4, read-out: GGTase-I IC50), 100000 nM; at GGTase I (read-out: GGTase I IC50), 100000 nM; on FTase [1] (Table 4, read-out: FTase IC50) it was 114 nM. Besides, the “lowest concentration that inhibited Ras processing” value in the experiment on Ras processing came to 50 µM. In addition, the “inhibition of Ras processing” value with Ras processing (100 μM) is given as “potently inhibit Ras processing”. Besides, the “inhibition of Rap1A processing” value in the experiment on Rap1A processing is listed as “not able to inhibit Rap1A geranylgeranylation”. The “selectivity for FTase over GGTase I” value at FTase [1] turned out to be 877 fold. Also, on FTase [1] (Table 4, FTase over GGTase I), the Selectivity is 877. Besides, the “farnesylation by FTase” value on FTase [2] (FIG. 15, listed as 4) is “prevented farnesylation; also recorded: not substrates for farnesylation”. The Substrate result at FTase [2] (Table 4, substrate for farnesylation, TLC) is recorded as “no”.

Take “Cys-Ile-Phe-Met (CIFM; printed: Cys-Ile-Phe-Met)”: at FTase [3], the IC50 is 30 nM.
